According to patent US8039465B2, “Cytoskeletal active compounds, composition and use” (priority 2005, dated 2011):

Assays:
non-muscle actin = test: Actin Polymerization Inhibition Assay (Actin Polymerization Biochem Kit, pyrene actin fluorescence); format: biochemical; conditions: inhibition of actin polymerization (pyrene-labeled actin fluorescence increase) at standard test concentration of 10 uM
Description: The quantative effects of the test compounds on the kinetics of actin polymerization were determined using a non-muscle actin polymerization kit, Actin Polymerization Biochem Kit, according to the instructions of the manufacturer (Cytoskeleton Inc; Denver, Colo.). This assay evaluates the fluorescence intensity of pyrene actin, which is greater for polymeric actin than for monomeric actin. The ability of the test compounds to inhibit actin assembly was determined by measuring their ability to inhibit this increase in the fluorescence intensity of the pyrene-labeled actin. Results were expressed as the percent inhibition measured at a standard test concentration of 10 uM.

NIH/3T3 cells = test: NIH/3T3 Cell Morphology Assay (phalloidin staining, degree of actin disruption); format: cell-based; conditions: 30 minutes at 37° C., 10 nM to 100 uM tested, TRITC-phalloidin imaging
Description: NIH/3T3 cells were grown in DMEM-H containing glutamine and 10% Colorado Calf Serum. Cells were passaged regularly prior to reaching confluence. Eighteen to 24 hours prior to experimentation, the cells were plated onto Poly-L-Lysine-coated glass coverslips. On the day of experimentation, the cell culture medium was removed and was replaced with medium containing from 10 nM to 100 uM of the test compound, and the cells were incubated for 30 minutes at 37° C. The culture medium was then removed and the cells were washed with warmed PBS and fixed for 10 minutes with warmed 4% paraformaldehyde. The cells were permeabilized with 0.5% Triton-X, stained with TRITC-conjugated phalloidin and imaged using a Nikon Eclipse E600 epifluorescent microscope to determine the degree of actin disruption. Results were expressed as the concentration at which complete disruption of the actin cytoskeleton was observed.

SMILES	Percent inhibition at 10 uM (non-muscle actin) [%]	Concentration giving complete actin disruption (NIH/3T3 cells) [µM]
C=CCCC[C@@H]1C[C@@H](OC(=O)/C=C(/C)CCC=C)C[C@](O)([C@@H]2CSC(=O)N2)O1 [Compound 1, (Z)-((2R,4R,6R)-2-Hydroxy-2-((R)-2-oxothiazolidin-4-yl)-6-(pent-4-enyl)-tetrahydro-2H-pyran-4-yl) 3-Methylhepta-2,6-dienoate]	52.3	–
C=CCCC[C@@H]1C[C@@H](NC(=O)/C=C(/C)CCC=C)C[C@](O)([C@@H]2CSC(=O)N2)O1 [Compound 1a, (Z)-N-((2R,4R,6R)-2-Hydroxy-2-((R)-2-oxothiazolidin-4-yl)-6-(pent-4-enyl)-tetrahydro-2H-pyran-4-yl)-3-methylhepta-2,6-dienamide]	32.4	–
C=CCCC[C@@H]1C[C@@H](OC(=O)c2ccccc2)C[C@](O)([C@@H]2CSC(=O)N2)O1 [Compound 4, (2R,4R,6R)-2-Hydroxy-2-((R)-2-oxothiazolidin-4-yl)-6-(pent-4-enyl)-tetrahydro-2H-pyran-4-yl Benzoate]	52.0	–
C=CCCC[C@@H]1C[C@@H](OC(=O)c2ccc(OC)cc2)C[C@](O)([C@@H]2CSC(=O)N2)O1 [Compound 4a, (2R,4R,6R)-2-Hydroxy-2-((R)-2-oxothiazolidin-4-yl)-6-(pent-4-enyl)-tetrahydro-2H-pyran-4-yl 4-Methoxybenzoate]	42.2	–
C=CCCC[C@@H]1C[C@@H](OC(=O)c2ccc(S(C)(=O)=O)cc2)C[C@](O)([C@@H]2CSC(=O)N2)O1 [Compound 4b, (2R,4R,6R)-2-Hydroxy-2-((R)-2-oxothiazolidin-4-yl)-6-(pent-4-enyl)-tetrahydro-2H-pyran-4-yl 4-(Methylsulfonyl)benzoate]	45.6	–
C/C1=C/C(=O)O[C@@H]2C[C@@H](CCC/C=C\CC1)O[C@@](O)([C@@H]1CSC(=O)N1)C2 [Compound 8, (R)-4-((1R,4Z,8Z,13R,15R)-15-Hydroxy-5-methyl-3-oxo-2,14-dioxa-bicyclo[11.3.1]heptadeca-4,8-dien-15-yl)thiazolidin-2-one]	69.9	5
C/C1=C/C(=O)O[C@@H]2C[C@@H](CCC/C=C/CC1)O[C@@](O)([C@@H]1CSC(=O)N1)C2 [Compound 8a, (R)-4-((1R,4Z,8E,13R,15R)-15-Hydroxy-5-methyl-3-oxo-2,14-dioxa-bicyclo[11.3.1]heptadeca-4,8-dien-15-yl)thiazolidin-2-one]	67.2	15
C/C1=C/C(=O)O[C@@H]2C[C@@H](CC[C@H](C)/C=C/CC1)O[C@@](O)([C@@H]1CSC(=O)N1)C2 [Compound 8b, (R)-4-((1R,4Z,8E,10S,13R,15R)-15-Hydroxy-5,10-dimethyl-3-oxo-2,14-dioxa-bicyclo[11.3.1]heptadeca-4,8-dien-15-yl)thiazolidin-2-one]	61.7	25
C/C1=C/C(=O)N[C@@H]2C[C@@H](CCC/C=C\CC1)O[C@@](O)([C@@H]1CSC(=O)N1)C2 [Compound 8c, (1R,4Z,8Z,13R,15R)-15-Hydroxy-5-methyl-15-((R)-2-oxothiazolidin-4-yl)-14-oxa-2-aza-bicyclo[11.3.1]heptadeca-4,8-dien-3-one]	44.9	–
C/C1=C/C(=O)O[C@@H]2C[C@@H](CCCCCCC1)O[C@@](O)([C@@H]1CSC(=O)N1)C2 [Compound 10, (R)-4-((1R,13R,15R,Z)-15-Hydroxy-5-methyl-3-oxo-2,14-dioxa-bicyclo[11.3.1]heptadec-4-en-15-yl)thiazolidin-2-one]	44.1	–
O=C1CCCC/C=C\CCC[C@@H]2C[C@H](C[C@](O)([C@@H]3CSC(=O)N3)O2)O1 [Compound 10a, (R)-4-((1R,13R,15R,Z)-15-Hydroxy-3-oxo-2,14-dioxa-bicyclo[11.3.1]heptadec-8-en-15-yl)thiazolidin-2-one]	14.0	–
O=C1CCCCCCCCC[C@@H]2C[C@H](C[C@](O)([C@@H]3CSC(=O)N3)O2)O1 [Compound 10b, (R)-4-((1R,13R,15R)-15-Hydroxy-3-oxo-2,14-dioxa-bicyclo[11.3.1]heptadecan-15-yl)thiazolidin-2-one]	21.8	–
O=C1CCCCC/C=C/CCC[C@@H]2C[C@H](C[C@](O)([C@@H]3CSC(=O)N3)O2)O1 [Compound 10c, (R)-4-((1R,14R,16R,E)-16-Hydroxy-3-oxo-2,15-dioxa-bicyclo[12.3.1]octadec-9-en-16-yl)thiazolidin-2-one]	21.7	–
O=C1CCCCCCCCCC[C@@H]2C[C@H](C[C@](O)([C@@H]3CSC(=O)N3)O2)O1 [Compound 10d, (R)-4-((1R,14R,16R)-16-Hydroxy-3-oxo-2,15-dioxa-bicyclo[12.3.1]octadecan-16-yl)thiazolidin-2-one]	10.4	–
